Results from patent US4663320A, “(2-oxo-1,2,3,5-tetrahydroimidazo[2,1-b]quinoazolinyl)oxyalkylamides, compositions and the use thereof” (Syntex (U.S.A.) Inc., priority 1985, dated 1987).

How the values were obtained:
[1] = system: Human platelet cyclic AMP phosphodiesterase; assay: Cyclic AMP phosphodiesterase assay (human platelet); type: biochemical; conditions: for IC50: human platelet phosphodiesterase, 1 μM cyclic AMP as substrate; for Relative Potency: relative to theophylline (assigned a value of 1) on human platelet phosphodiesterase
Experimental: (§1) The inhibition of cyclic AMP phosphodiesterase activity by the subject compounds was assayed by the method of Filburn and Karn, Analyt. Biochem., 52:505-516 (1973), using 1 μM cyclic AMP as the substrate. Human platelet cyclic AMP phosphodiesterase was obtained from human donors. Platelets were isolated and washed by centrifugation, the membranes ruptured by a sequential freeze-thaw procedure and hypotonic lysis and the soluble enzyme isolated by high speed centrifugation. The enzyme was stored in aliquots at -20° C.
(§2) This table contains the IC50 values for human platelet phosphodiesterase and IC25 values for rat heart phosphodiesterase.

[2] = system: rat heart phosphodiesterase; assay: Cyclic AMP phosphodiesterase inhibition (rat heart); type: biochemical
Experimental: as §1, §2

[3] = system: Mongrel dogs; assay: Inotropic activity in anesthetized dogs; type: in vivo; conditions: dog
Experimental: Mongrel dogs were anesthetized intravenously with 35 mg/Kg sodium pentobarbital and supplemented as needed. Blood pressure was measured with a Statham pressure transducer via a cannula inserted from a femoral artery into the abdominal aorta. Heart rate was recorded by a cardiotachometer from a lead II electrocardiogram. Right ventricular contractile force was recorded from a Walton-Brodie strain gauge sutured to the right ventricle following a midsternal thoracotomy. A Harvard respirator was used to ventilate the dogs with room air through an endotracheal tube. The dog was bilaterally vagotomized. Following a midline laparotomy, a cannula was sutured into the duodenum for intraduodenal administration of test compound. A femoral vein was cannulated for administration of isoproterenol. All data were recorded on a Beckman R611 Dynograph.
To assess the responsiveness of each dog, isoproterenol was given intravenously at half-log interval doses from 0.007 to 2.1 or 6.67 μg/Kg. The test compound was then administered intraduodenally, usually at a low dose of 2 mg/Kg and subsequently at higher doses of 6.32 and/or 20 mg/Kg, if necessary. In a few instances, some compounds administered intraduodenally at dose levels from 0.316 to 3.16 mg/Kg.

O=C1CN2Cc3cc(OCCCC(=O)N4CCCCC4CC(C4CCCCC4)C4CCCCC4)ccc3N=C2N1 (racemic) [perhexylenyl (n = 3, position 7), perhexylenyl-4-(2-oxo-1,2,3,5-tetrahydroimidazo[2,1-b]quinazolin-7-yl)oxybutyramide]
IC50 [1]: 1.8 nM | Relative Potency [1]: 146,000 | Rat Heart IC25 [2]: 36 nM

CN(Cc1ccccc1)C(=O)CCCOc1ccc2c(c1)CN1CC(=O)NC1=N2 [N--methyl-N--benzyl (n = 3, position 7), N-benzyl-N-methyl-4-(2-oxo-1,2,3,5-tetrahydroimidazo[2,1-b]quinazolin-7-yl)oxybutyramide]
IC50 [1]: 26 nM | Relative Potency [1]: 10,400 | Rat Heart IC25 [2]: 240 nM

CN(C(=O)CCCOc1ccc2c(c1)N=C1NC(=O)CN1C2)C1CCCCC1 [N-cyclohexyl-N-methyl-4-(2-oxo-1,2,3,5-tetrahydroimidazo[2,1-b]quinazolin-8-yl)oxybutyramide]
IC50 [1]: 150 nM | Relative Potency [1]: 1,800

O=C1CN2Cc3cc(OCCCC(=O)NC4CCCCC4)ccc3N=C2N1 [N--cyclohexyl (n = 3, position 7), N-cyclohexyl-4-(2-oxo-1,2,3,5-tetrahydroimidazo-[2,1-b]quinazolin-7-yl)oxybutyramide]
IC50 [1]: 72 nM | Relative Potency [1]: 38,000 | Rat Heart IC25 [2]: 180 nM

O=C1CN2Cc3cc(OCCCC(=O)N(CCO)C4CCCCC4)ccc3N=C2N1 [N-cyclohexyl-N-(2-hydroxyethyl)-4-(2-oxo-1,2,3,5-tetrahydroimidazo[2,1-b]quinazolin-7-yl)oxybutyramide]
IC50 [1]: 12.5 nM | Relative Potency [1]: 21,600 | Rat Heart IC25 [2]: 70 nM

O=C1CN2Cc3cc(OCCCC(=O)N4CCCC5CCCCC54)ccc3N=C2N1 (racemic) [(±)-decahydroquinloninyl-4-(2-oxo-1,2,3,5-tetrahydroimidazo[2,1-b]quinazolin-7-yl)oxybutyramide]
IC50 [1]: 13.5 nM | Relative Potency [1]: 20,000 | Rat Heart IC25 [2]: 200 nM

CC(C)(C)C(=O)OCCN(C(=O)CCCOc1ccc2c(c1)CN1CC(=O)NC1=N2)C1CCCCC1
IC50 [1]: 1 nM | Relative Potency [1]: 270,000

CN(C(=O)CCCOc1ccc2c(c1)CN1C(=N2)NC(=O)[C@@H]1CO)C1CCCCC1 [N-cyclohexyl-N-methyl-4-(2-oxo-3-L-hydroxymethyl-1,2,3,5-tetrahydroimidazo[2,1-b]quinazolin-7-yl)oxybutyramide]
IC50 [1]: 27.5 nM | Relative Potency [1]: 9,800 | Rat Heart IC25 [2]: 90 nM

CN(C(=O)CCCCCOc1ccc2c(c1)CN1CC(=O)NC1=N2)C1CCCCC1 [N-cyclohexyl-N-methyl-6-(2-oxo-1,2,3,5-tetrahydroimidazo[2,1-b]quinazolin-7-yl)oxyhexanamide]
IC50 [1]: 12 nM | Relative Potency [1]: 22,500 | Rat Heart IC25 [2]: 21 nM

CN(C(=O)CCCOc1ccc2c(c1)CN1CC(=O)NC1=N2)c1ccccc1 [N--methyl-N--phenyl (n = 3, position 7), N-phenyl-N-methyl-4-(2-oxo-1,2,3,5-tetrahydroimidazo[2,1-b]quinazolin-7-yl)oxybutyramide]
IC50 [1]: 26 nM | Relative Potency [1]: 10,400 | Rat Heart IC25 [2]: 350 nM

CN(C(=O)CCCOc1cccc2c1CN1CC(=O)NC1=N2)C1CCCCC1 [N-cyclohexyl-N-methyl-4-(2-oxo-1,2,3,5-tetrahydroimidazo[2,1-b]quinazolin-6-yl)oxybutyramide]
IC50 [1]: 2000 nM | Relative Potency [1]: 135

O=C1CN2Cc3cc(OCCCC(=O)N(CCOC(=O)c4ccccc4)C4CCCCC4)ccc3N=C2N1 [N-cyclohexyl-N-(benzoyloxyethyl)-4-(2-oxo-1,2,3,5-tetrahydroimidazo[2,1-b]quinazolin-7-yl)oxybutyramide]
IC50 [1]: 0.94 nM | Relative Potency [1]: 287,000

CC(C)N(C(=O)CCCOc1ccc2c(c1)CN1CC(=O)NC1=N2)C1CCCCC1 [N-cyclohexyl-N-isopropyl-4-(2-oxo-1,2,3,5-tetrahydroimidazo[2,1-b]quinazolin-7-yl)oxybutyramide]
IC50 [1]: 3.2 nM | Relative Potency [1]: 84,000 | Rat Heart IC25 [2]: 15 nM

CCN(C(=O)CCCOc1ccc2c(c1)CN1CC(=O)NC1=N2)C1CCCCC1 [N-cyclohexyl-N-ethyl-4-(2-oxo-1,2,3,5-tetrahydroimidazo[2,1-b]quinazolin-7-yl)oxybutyramide]
IC50 [1]: 1.5 nM | Relative Potency [1]: 180,000 | Rat Heart IC25 [2]: < 10 nM

COCCN(C(=O)CCCOc1ccc2c(c1)CN1CC(=O)NC1=N2)C1CCCCC1 [N-cyclohexyl-N-(2-methoxyethyl)-4-(2-oxo-1,2,3,5-tetrahydroimidazo[2,1-b]quinazolin-7-yl)oxybutyramide]
IC50 [1]: 1.3 nM | Relative Potency [1]: 208,000 | Rat Heart IC25 [2]: < 10 nM

CN(C(=O)CCCOc1ccc2c(c1)CN1CC(=O)NC1=N2)C1CCCCCC1 [N-cycloheptyl-N-methyl-4-(2-oxo-1,2,3,5-tetrahydroimidazo[2,1-b]quinazolin-7-yl)oxybutyramide]
IC50 [1]: 1 nM | Relative Potency [1]: 270,000 | Rat Heart IC25 [2]: < 10 nM

CN(C(=O)CCCOc1ccc2c(c1)CN1CC(=O)NC1=N2)C(c1ccccc1)c1ccccc1 [N-diphenylmethyl-N-methyl-4-(2-oxo-1,2,3,5-tetrahydroimidazo[2,1-b]quinazolin-7-yl)oxybutyramide]
IC50 [1]: 15 nM | Relative Potency [1]: 18,000 | Rat Heart IC25 [2]: 60 nM

O=C1CN2Cc3cc(OCCCC(=O)N(C4CCCCC4)C4CCCCC4)ccc3N=C2N1 [N,N--dicyclohexyl (n = 3, position 7), N,N-dicyclohexyl-4-(2-oxo-1,2,3,5-tetrahydroimidazo[2,1-b]quinazolin-7-yl)oxybutyramide]
IC50 [1]: 1.4 nM | Relative Potency [1]: 186,000 | Rat Heart IC25 [2]: 16 nM

CC(=O)OCCN(C(=O)CCCOc1ccc2c(c1)CN1CC(=O)NC1=N2)C1CCCCC1 [N-cyclohexyl-N-(acetoxyethyl)-4-(2-oxo-1,2,3,5-tetrahydroimidazo[2,1-b]quinazolin-7-yl)oxybutyramide]
IC50 [1]: 1.4 nM | Relative Potency [1]: 193,000

CN(C(=O)COc1ccc2c(c1)CN1CC(=O)NC1=N2)C1CCCCC1 [N-cyclohexyl-N-methyl-2-(2-oxo-1,2,3,5-tetrahydroimidazo[2,1-b]quinazolin-7-yl)oxyacetamide]
IC50 [1]: 820 nM | Relative Potency [1]: 330 | Rat Heart IC25 [2]: 4,400 nM

CN(C(=O)CCCCCCOc1ccc2c(c1)CN1CC(=O)NC1=N2)C1CCCCC1 [N-cyclohexyl-N-methyl-7-(2-oxo-1,2,3,5-tetrahydroimidazo[2,1-b]quinazolin-7-yl)oxyheptanamide]
IC50 [1]: 16 nM | Relative Potency [1]: 16,800 | Rat Heart IC25 [2]: 45 nM

C[C@H]1C(=O)NC2=Nc3ccc(OCCCC(=O)N(C)C4CCCCC4)cc3CN21 [N-cyclohexyl-N-methyl-4-(2-oxo-3-L-methyl-1,2,3,5-tetrahydroimidazo[2,1-b]quinzolin-7-yl)oxybutyramide]
Blood Pressure, peak effect as % of max. isoproterenol ([3]; i.v., 0.1 mg/kg): 97% | Heart Rate, peak effect as % of max. isoproterenol ([3]; i.v., 0.1 mg/kg): 55% | Rt. Ventricular Contractile Force, peak effect as % of max. isoproterenol ([3]; i.v., 0.1 mg/kg): 32% | Blood Pressure, peak effect as % of max. isoproterenol ([3]; intraduodenal, 0.316 mg/kg): 17% | Heart Rate, peak effect as % of max. isoproterenol ([3]; intraduodenal, 0.316 mg/kg): 11% | Rt. Ventricular Contractile Force, peak effect as % of max. isoproterenol ([3]; intraduodenal, 0.316 mg/kg): 23% | Blood Pressure, peak effect as % of max. isoproterenol ([3]; intraduodenal, 1.0 mg/kg): 54% | Heart Rate, peak effect as % of max. isoproterenol ([3]; intraduodenal, 1.0 mg/kg): 44% | Rt. Ventricular Contractile Force, peak effect as % of max. isoproterenol ([3]; intraduodenal, 1.0 mg/kg): 69% | Blood Pressure, peak effect as % of max. isoproterenol ([3]; intraduodenal, 3.16 mg/kg): 94% | Heart Rate, peak effect as % of max. isoproterenol ([3]; intraduodenal, 3.16 mg/kg): 58% | Rt. Ventricular Contractile Force, peak effect as % of max. isoproterenol ([3]; intraduodenal, 3.16 mg/kg): 55%

CC(C)C(=O)OCCN(C(=O)CCCOc1ccc2c(c1)CN1CC(=O)NC1=N2)C1CCCCC1
IC50 [1]: 1.1 nM | Relative Potency [1]: 245,000

O=C1CN2Cc3cc(OCCCC(=O)N(Cc4ccccc4)Cc4ccccc4)ccc3N=C2N1 [N,N--dibenzyl (n = 3, position 7), N,N-dibenzyl-4-(2-oxo-1,2,3,5-tetrahydroimidazo[2,1-b]quinazolin-7-yl)oxybutyramide]
IC50 [1]: 9.2 nM | Relative Potency [1]: 29,300 | Rat Heart IC25 [2]: 60 nM

CN(C(=O)CCCCOc1ccc2c(c1)CN1CC(=O)NC1=N2)C1CCCCC1 [N-cyclohexyl-N-methyl-5-(2-oxo-1,2,3,5-tetrahydroimidazo[2,1-b]quinazolin-7-yl)oxypentanamide]
IC50 [1]: 4.6 nM | Relative Potency [1]: 58,700 | Rat Heart IC25 [2]: 22 nM

CN(C(=O)CCCOc1cccc2c1N=C1NC(=O)CN1C2)C1CCCCC1 [N-cyclohexyl-N-methyl-4-(2-oxo-1,2,3,5-tetrahydroimidazo[2,1-b]quinazolin-9-yl)oxybutyramide]
IC50 [1]: > 10000 nM | Relative Potency [1]: < 2.7

CN(C(=O)CCCOc1ccc2c(c1)CN1C(=N2)NC(=O)[C@H]1CO)C1CCCCC1 [N-cyclohexyl-N-methyl-4-(2-oxo-3-D-hydroxymethyl-1,2,3,5-tetrahydroimidazo[2,1-b]quinazolin-7-yl)oxybutyramide]
IC50 [1]: 18.5 nM | Relative Potency [1]: 14,600 | Rat Heart IC25 [2]: 72 nM
